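The compound was tested at five concentrations on cells cultured in 96-well plates, with a 48-hour exposure period. TGI denotes the concentration required for complete inhibition of growth.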
Legend:
Assay in all cases: growth of human tumour cells (NCI), 48 h
SK-MEL-5 melanoma = system: SK-MEL-5 melanoma
MDA-MB-231 breast = system: MDA-MB-231 breast
NCI-H226 lung = system: NCI-H226 lung
786-0 renal = system: 786-0 renal
RXF 393 renal = system: RXF 393 renal
OVCAR-8 ovarian = system: OVCAR-8 ovarian
TK-10 renal = system: TK-10 renal
SF-539 CNS = system: SF-539 CNS
HOP-92 NSCLC = system: HOP-92 NSCLC
K-562 leukemia = system: K-562 leukemia
MDA-N = system: MDA-N
OVCAR-3 ovarian = system: OVCAR-3 ovarian
HS 578T breast = system: HS 578T breast
SN12C renal = system: SN12C renal
PC-3 prostate = system: PC-3 prostate
MCF7 breast = system: MCF7 breast
SR leukemia = system: SR leukemia
SF-268 CNS = system: SF-268 CNS
SK-MEL-2 melanoma = system: SK-MEL-2 melanoma
NCI-H522 lung = system: NCI-H522 lung
SK-MEL-28 melanoma = system: SK-MEL-28 melanoma
T-47D breast = system: T-47D breast
SW-620 colon = system: SW-620 colon
NCI-H23 lung = system: NCI-H23 lung
EKVX NSCLC = system: EKVX NSCLC
HT29 colon = system: HT29 colon
CCRF-CEM leukemia = system: CCRF-CEM leukemia
NCI-H460 lung = system: NCI-H460 lung
MOLT-4 leukemia = system: MOLT-4 leukemia
SF-295 CNS = system: SF-295 CNS
SK-OV-3 ovarian = system: SK-OV-3 ovarian
SNB-75 CNS = system: SNB-75 CNS
COLO 205 colon = system: COLO 205 colon
RPMI-8226 leukemia = system: RPMI-8226 leukemia
OVCAR-4 ovarian = system: OVCAR-4 ovarian
HCT-116 colon = system: HCT-116 colon
ACHN renal = system: ACHN renal
A549 NSCLC = system: A549 NSCLC
MALME-3M melanoma = system: MALME-3M melanoma
LOX IMVI melanoma = system: LOX IMVI melanoma
NCI/ADR-RES ovarian = system: NCI/ADR-RES ovarian
UACC-257 melanoma = system: UACC-257 melanoma
DU-145 prostate = system: DU-145 prostate
IGROV1 ovarian = system: IGROV1 ovarian
HCC-2998 colon = system: HCC-2998 colon
CAKI-1 renal = system: CAKI-1 renal
HCT-15 colon = system: HCT-15 colon
HOP-62 NSCLC = system: HOP-62 NSCLC
MDA-MB-435 = system: MDA-MB-435
A498 renal = system: A498 renal
SNB-19 CNS = system: SNB-19 CNS
UO-31 renal = system: UO-31 renal
UACC-62 melanoma = system: UACC-62 melanoma
BT-549 breast = system: BT-549 breast
KM12 colon = system: KM12 colon
M14 melanoma = system: M14 melanoma
OVCAR-5 ovarian = system: OVCAR-5 ovarian
U251 CNS = system: U251 CNS
HL-60(TB) leukemia = system: HL-60(TB) leukemia

## O=C(/C=C/c1cccc(Oc2ccccc2)c1)NCc1ccc(C(=O)NCc2ccccc2)cc1
SK-MEL-5 melanoma
  TGI: > 100 µM
MDA-MB-231 breast
  TGI: > 100 µM
NCI-H226 lung
  TGI: 88.1 µM
786-0 renal
  TGI: > 100 µM
RXF 393 renal
  TGI: 41 µM
OVCAR-8 ovarian
  TGI: > 100 µM
TK-10 renal
  TGI: > 100 µM
SF-539 CNS
  TGI: > 100 µM
HOP-92 NSCLC
  TGI: > 100 µM
K-562 leukemia
  TGI: > 100 µM
MDA-N
  TGI: > 100 µM
OVCAR-3 ovarian
  TGI: > 100 µM
HS 578T breast
  TGI: > 100 µM
SN12C renal
  TGI: > 100 µM
PC-3 prostate
  TGI: > 100 µM
MCF7 breast
  TGI: > 100 µM
SR leukemia
  TGI: > 100 µM
SF-268 CNS
  TGI: > 100 µM
SK-MEL-2 melanoma
  TGI: > 100 µM
NCI-H522 lung
  TGI: > 100 µM
SK-MEL-28 melanoma
  TGI: > 100 µM
T-47D breast
  TGI: > 100 µM
SW-620 colon
  TGI: > 100 µM
NCI-H23 lung
  TGI: > 100 µM
EKVX NSCLC
  TGI: > 100 µM
HT29 colon
  TGI: > 100 µM
CCRF-CEM leukemia
  TGI: > 100 µM
NCI-H460 lung
  TGI: > 100 µM
MOLT-4 leukemia
  TGI: > 100 µM
SF-295 CNS
  TGI: 79.4 µM
SK-OV-3 ovarian
  TGI: 29.8 µM
SNB-75 CNS
  TGI: 53.3 µM
COLO 205 colon
  TGI: > 100 µM
RPMI-8226 leukemia
  TGI: > 100 µM
OVCAR-4 ovarian
  TGI: > 100 µM
HCT-116 colon
  TGI: > 100 µM
ACHN renal
  TGI: > 100 µM
A549 NSCLC
  TGI: > 100 µM
MALME-3M melanoma
  TGI: > 100 µM
LOX IMVI melanoma
  TGI: > 100 µM
NCI/ADR-RES ovarian
  TGI: > 100 µM
UACC-257 melanoma
  TGI: > 100 µM
DU-145 prostate
  TGI: > 100 µM
IGROV1 ovarian
  TGI: > 100 µM
HCC-2998 colon
  TGI: > 100 µM
CAKI-1 renal
  TGI: > 100 µM
HCT-15 colon
  TGI: > 100 µM
HOP-62 NSCLC
  TGI: 18.8 µM
MDA-MB-435
  TGI: > 100 µM
A498 renal
  TGI: > 100 µM
SNB-19 CNS
  TGI: > 100 µM
UO-31 renal
  TGI: > 100 µM
UACC-62 melanoma
  TGI: > 100 µM
BT-549 breast
  TGI: > 100 µM
KM12 colon
  TGI: > 100 µM
M14 melanoma
  TGI: > 100 µM
OVCAR-5 ovarian
  TGI: > 100 µM
U251 CNS
  TGI: > 100 µM

## Cc1ccc2c(c1)C(=O)c1nc(C)ccc1C2=O
SK-MEL-5 melanoma
  TGI: 19.7 µM
MDA-MB-231 breast
  TGI: 62.1 µM
NCI-H226 lung
  TGI: > 100 µM
786-0 renal
  TGI: > 100 µM
RXF 393 renal
  TGI: > 100 µM
OVCAR-8 ovarian
  TGI: 97.5 µM
TK-10 renal
  TGI: > 100 µM
SF-539 CNS
  TGI: > 100 µM
K-562 leukemia
  TGI: > 100 µM
MDA-N
  TGI: 39.9 µM
OVCAR-3 ovarian
  TGI: > 100 µM
HS 578T breast
  TGI: > 100 µM
SN12C renal
  TGI: 87.9 µM
PC-3 prostate
  TGI: > 100 µM
MCF7 breast
  TGI: > 100 µM
SR leukemia
  TGI: > 100 µM
SF-268 CNS
  TGI: > 100 µM
SK-MEL-2 melanoma
  TGI: > 100 µM
NCI-H522 lung
  TGI: 74.2 µM
SK-MEL-28 melanoma
  TGI: > 100 µM
T-47D breast
  TGI: > 100 µM
SW-620 colon
  TGI: > 100 µM
NCI-H23 lung
  TGI: 56.7 µM
EKVX NSCLC
  TGI: > 100 µM
HT29 colon
  TGI: 83 µM
CCRF-CEM leukemia
  TGI: > 100 µM
MOLT-4 leukemia
  TGI: > 100 µM
SF-295 CNS
  TGI: > 100 µM
HL-60(TB) leukemia
  TGI: 70.3 µM
SK-OV-3 ovarian
  TGI: > 100 µM
SNB-75 CNS
  TGI: > 100 µM
COLO 205 colon
  TGI: 42.7 µM
RPMI-8226 leukemia
  TGI: 74.1 µM
OVCAR-4 ovarian
  TGI: 89 µM
HCT-116 colon
  TGI: 60.6 µM
ACHN renal
  TGI: > 100 µM
A549 NSCLC
  TGI: > 100 µM
MALME-3M melanoma
  TGI: 24.7 µM
LOX IMVI melanoma
  TGI: > 100 µM
NCI/ADR-RES ovarian
  TGI: 59.1 µM
UACC-257 melanoma
  TGI: 45.2 µM
DU-145 prostate
  TGI: > 100 µM
IGROV1 ovarian
  TGI: 66.5 µM
HCC-2998 colon
  TGI: 87.8 µM
CAKI-1 renal
  TGI: 76.9 µM
HCT-15 colon
  TGI: 48.1 µM
HOP-62 NSCLC
  TGI: > 100 µM
MDA-MB-435
  TGI: 44 µM
A498 renal
  TGI: > 100 µM
SNB-19 CNS
  TGI: 63.7 µM
UO-31 renal
  TGI: 86.2 µM
UACC-62 melanoma
  TGI: 67.3 µM
BT-549 breast
  TGI: > 100 µM
KM12 colon
  TGI: > 100 µM
M14 melanoma
  TGI: > 100 µM
OVCAR-5 ovarian
  TGI: > 100 µM
U251 CNS
  TGI: > 100 µM

— PubChem BioAssay (NCI)
